The values below come from patent US9938261B2, “Heterocyclic compounds and methods of use thereof” (AMBIT BIOSCIENCES CORPORATION, priority 2011, dated 2018).

Where a name gives a salt, the structure may show the parent alone. Read-outs that look alike come from different tables or passages of the source.

Assay [1] has as its target T1, FLT3 (Homo sapiens, UniProt P36888).
T1 construct: made in house
T1 sequence (P36888 27-993): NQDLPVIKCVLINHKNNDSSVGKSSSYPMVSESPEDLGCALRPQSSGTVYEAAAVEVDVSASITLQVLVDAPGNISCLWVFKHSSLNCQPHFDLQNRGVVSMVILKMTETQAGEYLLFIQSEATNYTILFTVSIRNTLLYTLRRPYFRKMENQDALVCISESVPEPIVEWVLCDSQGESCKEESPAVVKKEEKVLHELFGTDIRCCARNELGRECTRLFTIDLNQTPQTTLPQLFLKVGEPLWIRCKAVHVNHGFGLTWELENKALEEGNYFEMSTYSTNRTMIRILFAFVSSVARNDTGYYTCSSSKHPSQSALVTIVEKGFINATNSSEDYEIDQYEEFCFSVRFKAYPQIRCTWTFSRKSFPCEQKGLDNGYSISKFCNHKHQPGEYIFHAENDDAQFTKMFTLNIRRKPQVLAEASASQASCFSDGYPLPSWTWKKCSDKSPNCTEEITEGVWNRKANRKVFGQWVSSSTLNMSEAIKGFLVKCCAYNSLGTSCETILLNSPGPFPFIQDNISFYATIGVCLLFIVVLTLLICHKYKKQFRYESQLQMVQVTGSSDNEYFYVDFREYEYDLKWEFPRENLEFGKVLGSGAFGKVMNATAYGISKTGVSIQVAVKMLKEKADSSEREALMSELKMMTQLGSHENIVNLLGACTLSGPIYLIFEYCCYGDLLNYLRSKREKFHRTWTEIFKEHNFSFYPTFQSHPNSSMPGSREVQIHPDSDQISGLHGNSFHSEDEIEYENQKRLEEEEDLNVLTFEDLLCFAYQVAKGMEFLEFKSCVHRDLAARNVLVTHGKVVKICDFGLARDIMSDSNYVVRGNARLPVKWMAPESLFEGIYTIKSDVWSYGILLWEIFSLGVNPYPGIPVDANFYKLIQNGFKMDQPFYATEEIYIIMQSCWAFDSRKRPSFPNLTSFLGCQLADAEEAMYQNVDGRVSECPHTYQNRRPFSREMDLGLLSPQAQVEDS
The assay can be described thus: Competition binding assay, FLT3 Kd. The method, boiled down:
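Phage-fused or HEK-293/DNA-tagged kinase + ligand-coated streptavidin beads + compound, 1 h RT with shaking. Wash, elute with free ligand 30 min RT, qPCR of eluted kinase. Kd: 11-point 3-fold series.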

Assay [2] relates to M-NFS-60 cells. The assay can be described thus: M-NFS-60 cell proliferation assay (Alamar Blue). Format: cell-based, mouse. To be noted: read-out: CSF1R M-NFS-60 CTB:IC50. The method, boiled down:
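Mouse M-NFS-60 cells growing on 20 ng/mL M-CSF in RPMI/10% FBS were exposed to compounds (9 half-log concentrations, 0.5% DMSO) for 72 h at 37 °C. Viability read by Alamar Blue fluorescence (ex 560/em 590 nm, 3 h). IC50 = 50% proliferation inhibition versus control, mean of duplicates.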

The mark [3] stands for this setting: Mus musculus, 72 hours incubation, M-CSF 20 ng/mL.
Setting [4] is: Mus musculus, M-NFS-60 cell proliferation.

In assay [1], `COc1cc2ncn(Cc3ccc4nc(N[C@@H]5CCCC[C@H]5O)sc4c3)c2cc1C#N` [Example 53, 1-((2-(((1R,2R)-2-hydroxycyclohexyl)amino)benzo[d]thiazol-6-yl)methyl)-5-methoxy-1H-benzo[d]imidazole-6-carbonitrile] gave a Kd of 1000 to 5000 nM. The IC50 in assay [2] (setting [3]) is at most 50 nM.
In assay [1] (competition binding), `O[C@@H]1CCCC[C@H]1Nc1nc2ccc(Cn3cnc4cc(C(F)(F)F)cnc43)cc2s1` [Example 212, (1R,2R)-2-((6-((6-(trifluoromethyl)-3H-imidazo[4,5-b]pyridin-3-yl)methyl)benzo[d]thiazol-2-yl)amino)cyclohexanol] registered a Kd of 200 to 1000 nM. Besides, the IC50 in assay [2] (setting [4]) lay within 50 to 400 nM.
`O[C@@H]1CCCC[C@H]1Nc1nc2ccc(Cn3cnc4cc(C5=CCOCC5)cc(F)c43)cc2s1` [Example 208, (1R,2R)-2-((6-((5-(3,6-dihydro-2H-pyran-4-yl)-7-fluoro-1H-benzo[d]imidazol-1-yl)methyl)benzo[d]thiazol-2-yl)amino)cyclohexanol] yielded a Kd in assay [1] (competition binding) of at most 200 nM. For the same compound, the IC50 in assay [2] (setting [4]) is at most 50 nM.
The compound `O[C@@H]1CCCC[C@H]1Nc1nc2ccc(Cn3cnc4cc(Br)cnc43)cc2o1` [Example 61, (1R,2R)-2-((6-((6-bromo-3H-imidazo[4,5-b]pyridin-3-yl)methyl)benzo[d]oxazol-2-yl)amino)cyclohexanol] displayed a Kd in assay [1] of at most 200 nM. For the same compound, the IC50 in assay [2] (setting [3]) was at most 50 nM.
`O[C@@H]1CCCC[C@H]1Nc1nc2ccc(Cc3cnc4[nH]c5ccccc5n34)cc2s1` [Example 205, (1R,2R)-2-((6-((9H-benzo[d]imidazo[1,2-a]imidazol-3-yl)methyl)benzo[d]thiazol-2-yl)amino)cyclohexanol]: the Kd in assay [1] (competition binding) was in the range of 200 to 1000 nM. Moreover, the IC50 in assay [2] (setting [4]) is 400 to 1500 nM.
As for `Nc1nccn(Cc2ccc3nc(N[C@@H]4CCCC[C@H]4O)sc3c2)c1=O` [Example 220, 3-amino-1-((2-(((1R,2R)-2-hydroxycyclohexyl)amino)benzo[d]thiazol-6-yl)methyl)pyrazin-2(1H)-one acetate salt], the Kd in assay [1] (competition binding) is over 5000 nM. Besides, the IC50 in assay [2] (setting [4]) was over 1500 nM.
For `CC(O)c1ccn2c(Cc3ccc4nc(N[C@@H]5CCCC[C@H]5O)sc4c3)cnc2c1` (stereo partly drawn) [Example 201, (1R,2R)-2-((6-((7-(1-hydroxyethyl)imidazo[1,2-a]pyridin-3-yl)methyl)benzo[d]thiazol-2-yl)amino)cyclohexanol], the Kd in assay [1] (competition binding) was in the range of 1000 to 5000 nM. For the same compound, the IC50 in assay [2] (setting [4]) is over 1500 nM.
Compound `N#Cc1cnc2c(c1)ncn2Cc1ccc2nc(N[C@@H]3CCCC[C@H]3O)sc2c1` [Example 43, 3-((2-(((1R,2R)-2-hydroxycyclohexyl)amino)benzo[d]thiazol-6-yl)methyl)-3H-imidazo[4,5-b]pyridine-6-carbonitrile] gave a Kd in assay [1] of 1000 to 5000 nM. Further, the IC50 in assay [2] (setting [3]) is 50 to 400 nM.
Compound `O[C@@H]1CCCC[C@H]1Nc1nc2ccc(Cc3cnc4ccccn34)cc2s1` [Example 38, (1R,2R)-2-((6-(imidazo[1,2-a]pyridin-3-ylmethyl)benzo[d]thiazol-2-yl)amino)cyclohexanol] gave a Kd in assay [1] of over 5000 nM. In assay [2] (setting [3]), the IC50 was 400 to 1500 nM.
In turn, `O[C@@H]1Cc2ccccc2[C@H]1Nc1nc2ccc(Cn3cnc4cc(Br)cnc43)cc2o1` [Example 62, (1R,2R)-1-((6-((6-bromo-3H-imidazo[4,5-b]pyridin-3-yl)methyl)benzo[d]oxazol-2-yl)amino)-2,3-dihydro-1H-inden-2-ol] registered a Kd in assay [1] of 200 to 1000 nM. Moreover, in assay [2] (setting [3]), the IC50 was at most 50 nM.
`O[C@@H]1CCCC[C@H]1Nc1nc2ccc(Cn3cnc4ccc(Br)cc43)cc2s1` [Example 107, (1R,2R)-2-((6-((6-bromo-1H-benzo[d]imidazol-1-yl)methyl)benzo[d]thiazol-2-yl)amino)cyclohexanol]: in assay [1] (competition binding), the Kd lay within 1000 to 5000 nM. For the same compound, the IC50 in assay [2] (setting [4]) was 50 to 400 nM.
Turning to `C=CCOc1ccn2c(Cc3ccc4nc(N[C@@H]5CCCC[C@H]5O)sc4c3)cnc2c1` [Example 217, (1R,2R)-2-((6-((7-(allyloxy)imidazo[1,2-a]pyridin-3-yl)methyl)benzo[d]thiazol-2-yl)amino)cyclohexanol], in assay [1] (competition binding), the Kd lay within 1000 to 5000 nM. In addition, the IC50 in assay [2] (setting [4]) was in the range of 50 to 400 nM.
`COc1cc2c(cc1Br)ncn2Cc1ccc2nc(N[C@@H]3CCCC[C@H]3O)sc2c1` [Example 41, (1R,2R)-2-((6-((5-bromo-6-methoxy-1H-benzo[d]imidazol-1-yl)methyl)benzo[d]thiazol-2-yl)amino)cyclohexanol]: the Kd in assay [1] was 200 to 1000 nM. The IC50 in assay [2] (setting [3]) lay within 50 to 400 nM.
Regarding `COc1cc2c(cc1-c1cnn(C)c1)ncn2Cc1ccc2nc(N[C@@H]3CCCC[C@H]3O)sc2c1` [Example 51, (1R,2R)-2-((6-((6-methoxy-5-(1-methyl-1H-pyrazol-4-yl)-1H-benzo[d]imidazol-1-yl)methyl)benzo[d]thiazol-2-yl)amino)cyclohexanol], the Kd in assay [1] is at most 200 nM. For the same compound, the IC50 in assay [2] (setting [3]) was at most 50 nM.
In assay [1], `OCc1cnc2c(c1)ncn2Cc1ccc2nc(N[C@@H]3CCCC[C@H]3O)sc2c1` [Example 84, (1R,2R)-2-((6-((6-(hydroxymethyl)-3H-imidazo[4,5-b]pyridin-3-yl)methyl)benzo[d]thiazol-2-yl)amino)cyclohexanol] yielded a Kd of 1000 to 5000 nM. Besides, the IC50 in assay [2] (setting [3]) lay in the range of 50 to 400 nM.
In assay [1], “either (1R,2R)-1-((6-((4-(1-methyl-1H-pyrazol-4-yl)-1H-imidazol-1-yl)methyl)benzo[d]thiazol-2-yl)amino)-2,3-dihydro-1H-inden-2-ol or (1R,2R)-1-((6-((5-(1-methyl-1H-pyrazol-4-yl)-1H-imidazol-1-yl)methyl)benzo[d]thiazol-2-yl)amino)-2,3-dihydro-1H-inden-2-ol [Example 83]” registered a Kd of at most 200 nM. The IC50 in assay [2] (72 hours incubation, M-CSF 20 ng/mL) lay within 50 to 400 nM.
In the case of `C=Cc1ccn2c(Cc3ccc4nc(N[C@@H]5CCCC[C@H]5O)sc4c3)cnc2c1` [Example 216, (1R,2R)-2-((6-((7-vinylimidazo[1,2-a]pyridin-3-yl)methyl)benzo[d]thiazol-2-yl)amino)cyclohexanol], the Kd in assay [1] (competition binding) fell in the range of 1000 to 5000 nM. Also, in assay [2] (setting [4]), the IC50 was in the range of 50 to 400 nM.
As to `O[C@@H]1Cc2ccccc2[C@H]1Nc1nc2ccc(Cn3cnc4cccnc43)cc2o1` [Example 57, (1R,2R)-1-((6-((3H-imidazo[4,5-b]pyridin-3-yl)methyl)benzo[d]oxazol-2-yl)amino)-2,3-dihydro-1H-inden-2-ol], the Kd in assay [1] lay in the range of 200 to 1000 nM. Moreover, in assay [2] (setting [3]), the IC50 fell in the range of 50 to 400 nM.
For `O[C@@H]1CCCC[C@H]1Nc1nc2ccc(Cn3cnc4cc(N5CCOCC5)cnc43)cc2s1` [Example 97, (1R,2R)-2-((6-((6-morpholino-3H-imidazo[4,5-b]pyridin-3-yl)methyl)benzo[d]thiazol-2-yl)amino)cyclohexanol] the same measures were 200 to 1000 nM and at most 50 nM.
In the case of `CC(=O)c1cnc2c(c1)ncn2Cc1ccc2nc(N[C@@H]3CCCC[C@H]3O)sc2c1` [Example 73, 1-(3-((2-(((1R,2R)-2-hydroxycyclohexyl)amino)benzo[d]thiazol-6-yl)methyl)-3H-imidazo[4,5-b]pyridin-6-yl)ethanone], the Kd in assay [1] is 1000 to 5000 nM. The IC50 in assay [2] (setting [3]) is 50 to 400 nM.
With `CC(=O)Nc1cn(Cc2ccc3nc(N[C@@H]4CCCC[C@H]4O)sc3c2)cn1` [Example 101, N-(1-((2-(((1R,2R)-2-hydroxycyclohexyl)amino)benzo[d]thiazol-6-yl)methyl)-1H-imidazol-4-yl)acetamide], in assay [1], the Kd was in the range of 200 to 1000 nM. In assay [2] (setting [3]), the IC50 was 50 to 400 nM.
In the case of `COc1cc2ncn(Cc3ccc4nc(N[C@@H]5CCCC[C@H]5O)sc4c3)c2cc1Br` [Example 47, (1R,2R)-2-((6-((6-bromo-5-methoxy-1H-benzo[d]imidazol-1-yl)methyl)benzo[d]thiazol-2-yl)amino)cyclohexanol], the Kd in assay [1] is 200 to 1000 nM. Besides, the IC50 in assay [2] (setting [3]) is at most 50 nM.
The compound `COc1cc2c(cc1Br)ncn2Cc1ccc2nc(N[C@@H]3c4ccccc4C[C@H]3O)sc2c1` [Example 49, (1R,2R)-1-((6-((5-bromo-6-methoxy-1H-benzo[d]imidazol-1-yl)methyl)benzo[d]thiazol-2-yl)amino)-2,3-dihydro-1H-inden-2-ol] had a Kd in assay [1] of 1000 to 5000 nM. Moreover, in assay [2] (setting [3]), the IC50 lay in the range of 50 to 400 nM.
